One may read the IC50 as the concentration that gives 50% inhibition.

The source of these data is US10633419B2, “Immunomodulators” (BRISTOL-MYERS SQUIBB COMPANY, priority 2014, dated 2020).

Molecules are shown by their SMILES. Positions of bridges follow the written chain, without caps; N, C: chain ends. Non-standard residues stand in square brackets, D forms with d. Residues, ends and D or L forms follow the SMILES beside them. Trp(1-CH2COOH) = N[C@@H](Cc1cn(CC(=O)O)c2ccccc12)C(=O)O; Phe(3,4,5-F3) = N[C@@H](Cc1cc(F)c(F)c(F)c1)C(=O)O; d(cisHyp) = O=C(O)[C@H]1C[C@@H](O)CN1; Hyp = O=C(O)[C@@H]1C[C@@H](O)CN1; NMeF = CN[C@@H](Cc1ccccc1)C(=O)O; NMeNle = CCCC[C@H](NC)C(=O)O; NMeA = CN[C@@H](C)C(=O)O; Orn = NCCC[C@H](N)C(=O)O; Pra = C#CC[C@H](N)C(=O)O; Dap = NC[C@H](N)C(=O)O

T1 sequence (Q9NZQ7 with tags, fused parts or gaps): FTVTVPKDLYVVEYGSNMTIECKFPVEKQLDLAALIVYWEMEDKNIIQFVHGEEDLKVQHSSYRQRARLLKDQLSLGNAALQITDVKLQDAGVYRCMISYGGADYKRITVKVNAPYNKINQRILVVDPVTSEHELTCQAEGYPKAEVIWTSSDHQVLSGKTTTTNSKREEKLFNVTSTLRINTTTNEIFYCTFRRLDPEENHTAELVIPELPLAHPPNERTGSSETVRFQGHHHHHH

This experiment concerns the target T1, PD-L1 (Homo sapiens, UniProt Q9NZQ7).
T1 construct: hPDL1(19-239)-TVMV-His; made in house; host or cells: HEK293T
Description: PD-1/PD-L1 Homogenous Time-Resolved Fluorescence (HTRF) binding assay (PD-1-Ig/PD-L1-His). To be noted: inhibition of PD-1-Ig binding to PD-L1-TVMV-His; value given as range class; read-out: HTRF IC50. An outline of the steps: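 Inhibitors pre-incubated 15 min with PD-L1-His (10 nM final), then PD-1-Ig (20 nM final) added for 15 min in dPBS/0.1% BSA/0.05% Tween-20. Eu-cryptate anti-Ig (1 nM) and APC anti-His (20 nM) added, 30 min equilibration, 665/620 nm HTRF ratio read.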
In general terms: In TR-FRET formats the signal depends on donor and acceptor labels being close together.
Take `C#CC[C@H](NC(=O)CNC(=O)[C@@H]1CSCC(=O)N[C@@H](Cc2ccc(O)cc2)C(=O)N(C)[C@@H](C)C(=O)N[C@@H](CC(=O)O)C(=O)N2CCC[C@H]2C(=O)N[C@@H](Cc2c[nH]cn2)C(=O)N[C@@H](CCCCN)C(=O)N2C[C@H](O)C[C@H]2C(=O)N[C@@H](Cc2c[nH]c3ccccc23)C(=O)N[C@@H](CCCCN)C(=O)N[C@@H](Cc2cn(CC(=O)O)c3ccccc23)C(=O)N(C)[C@@H](CCCC)C(=O)N(C)[C@@H](CCCC)C(=O)N[C@@H](CCC(=O)O)C(=O)N1)C(=O)NCC(N)=O` [INT 1400D] ({CH2CO}-Y[NMeA]DPHK[Hyp]WK[Trp(1-CH2COOH)][NMeNle][NMeNle]ECG[Pra]G-NH2; thioether N-14): the IC50 fell in the range of 0.3 to 9.9 nM. `C#CC[C@H](NC(=O)CNC(=O)[C@@H]1CSCC(=O)N[C@@H](Cc2ccc(O)cc2)C(=O)N(C)[C@@H](C)C(=O)N[C@@H](CC(=O)O)C(=O)N2CCC[C@H]2C(=O)N[C@@H](Cc2c[nH]cn2)C(=O)N[C@@H](CCCCN)C(=O)N2C[C@H](O)C[C@H]2C(=O)N[C@@H](Cc2c[nH]c3ccccc23)C(=O)N[C@@H](CCCCN)C(=O)N[C@@H](Cc2cn(CC(=O)O)c3ccccc23)C(=O)N(C)[C@@H](CCCC)C(=O)N(C)[C@@H](CCCC)C(=O)N[C@@H](CCC(=O)O)C(=O)N1)C(=O)N[C@@H](CC(=O)O)C(N)=O` [INT 1400E] ({CH2CO}-Y[NMeA]DPHK[Hyp]WK[Trp(1-CH2COOH)][NMeNle][NMeNle]ECG[Pra]D-NH2; thioether N-14): the IC50 is 0.3 to 9.9 nM. In the case of `C#CC[C@H](NC(=O)CNC(=O)[C@@H]1CSCC(=O)N[C@@H](Cc2ccc(O)cc2)C(=O)N(C)[C@@H](C)C(=O)N[C@@H](CC(=O)O)C(=O)N2CCC[C@H]2C(=O)N[C@@H](Cc2c[nH]cn2)C(=O)N[C@@H](CCCCN)C(=O)N2C[C@H](O)C[C@H]2C(=O)N[C@@H](Cc2c[nH]c3ccccc23)C(=O)N[C@@H](CCCCN)C(=O)N[C@@H](Cc2c[nH]c3ccccc23)C(=O)N(C)[C@@H](CCCC)C(=O)N(C)[C@@H](CCCC)C(=O)N[C@@H](CCC(=O)O)C(=O)N1)C(N)=O` [INT 1400F, ClAc-Tyr-mAla-Asp-Pro-His-Lys-Hyp-Trp-Lys-Trp-mNle-mNle-Glu-Cys-Gly-[(S)-propargylglycine]] ({CH2CO}-Y[NMeA]DPHK[Hyp]WKW[NMeNle][NMeNle]ECG[Pra]-NH2; thioether N-14), the IC50 is 0.3 to 9.9 nM. The value for `C#CC[C@H](NC(=O)CNC(=O)[C@@H]1CSCC(=O)N[C@@H](Cc2ccc(O)cc2)C(=O)N(C)[C@@H](C)C(=O)N[C@@H](CC(=O)O)C(=O)N2CCC[C@H]2C(=O)N[C@@H](Cc2c[nH]cn2)C(=O)N[C@@H](CCC(N)=O)C(=O)N2C[C@H](O)C[C@H]2C(=O)N[C@@H](Cc2c[nH]c3ccccc23)C(=O)N[C@@H](CO)C(=O)N[C@@H](Cc2c[nH]c3ccccc23)C(=O)N(C)[C@@H](CCCC)C(=O)N(C)[C@@H](CCCC)C(=O)N[C@@H](CCC(=O)O)C(=O)N1)C(N)=O` [INT 1400H, ClAc-Tyr-mAla-Asp-Pro-His-Gln-Hyp-Trp-Ser-Trp-mNle-mNle-Glu-Cys-Gly-[(S)-propargylglycine]] ({CH2CO}-Y[NMeA]DPHQ[Hyp]WSW[NMeNle][NMeNle]ECG[Pra]-NH2; thioether N-14) was 0.3 to 9.9 nM.

On to `C#CC[C@H](NC(=O)CNC(=O)[C@@H]1CSCC(=O)N[C@@H](Cc2ccc(O)cc2)C(=O)N(C)[C@@H](C)C(=O)N[C@@H](CC(N)=O)C(=O)N2CCC[C@H]2C(=O)N[C@@H](CN)C(=O)N[C@@H](CC(C)C)C(=O)N2C[C@H](O)C[C@H]2C(=O)N[C@@H](Cc2c[nH]c3ccccc23)C(=O)N[C@@H](CO)C(=O)N[C@@H](Cc2cn(CC(=O)O)c3ccccc23)C(=O)N(C)[C@@H](CCCC)C(=O)N(C)[C@@H](CCCC)C(=O)N[C@@H](CCC(=O)O)C(=O)N1)C(N)=O` [INT 1400I, ClAc-Tyr-mAla-Asn-Pro-Dap-Leu-Hyp-Trp-Ser-[(S)-2-amino-3-(1-(carboxymethyl)-1H-indol-3-yl)propanoic acid]-mNle-mNle-E-Cys-Gly-[(S)-propargylglycine]] ({CH2CO}-Y[NMeA]NP[Dap]L[Hyp]WS[Trp(1-CH2COOH)][NMeNle][NMeNle]ECG[Pra]-NH2; thioether N-14), for which the IC50 was in the range of 10 to 99 nM. The value for `C#CC[C@H](NC(=O)CNC(=O)[C@@H]1CSCC(=O)N[C@@H](Cc2cc(F)c(F)c(F)c2)C(=O)N(C)[C@@H](Cc2ccccc2)C(=O)N(C)[C@@H](CCCC)C(=O)N2CCC[C@@H]2C(=O)N[C@@H](CC(=O)O)C(=O)N[C@@H](C(C)C)C(=O)N(C)[C@@H](Cc2ccccc2)C(=O)N[C@@H](CCCN)C(=O)N2CCC[C@@H]2C(=O)N[C@@H](Cc2c[nH]c3ccccc23)C(=O)N[C@@H](Cc2ccc(O)cc2)C(=O)N[C@@H](CC(C)C)C(=O)N1)C(N)=O` [INT 1400K, ClAc-F3Phe-mPhe-mNle-dPro-Asp-Val-mPhe-Orn-dPro-Trp-Tyr-Leu-Cys-Gly-[(S)-propargylglycine]] ({CH2CO}-[Phe(3,4,5-F3)][NMeF][NMeNle][dP]DV[NMeF][Orn][dP]WYLCG[Pra]-NH2; thioether N-13) was 0.3 to 9.9 nM; that for `C#CC[C@H](NC(=O)CNC(=O)[C@@H]1CSCC(=O)N[C@@H](Cc2cc(F)c(F)c(F)c2)C(=O)N(C)[C@@H](Cc2ccccc2)C(=O)N(C)[C@@H](CCCC)C(=O)N2C[C@H](O)C[C@@H]2C(=O)N[C@@H](CC(=O)O)C(=O)N[C@@H](C(C)C)C(=O)N(C)[C@@H](Cc2ccccc2)C(=O)N[C@@H](CC(=O)O)C(=O)N2CCC[C@@H]2C(=O)N[C@@H](Cc2c[nH]c3ccccc23)C(=O)N[C@@H](Cc2ccc(O)cc2)C(=O)N[C@@H](CC(C)C)C(=O)N1)C(N)=O` [INT 1400L, ClAc-F3Phe-mPhe-mNle-dHyp-Asp-Val-mPhe-Asp-dPro-Trp-Tyr-Leu-Cys-Gly-[(S)-propargylglycine]] ({CH2CO}-[Phe(3,4,5-F3)][NMeF][NMeNle][d(cisHyp)]DV[NMeF]D[dP]WYLCG[Pra]-NH2; thioether N-13) was 10 to 99 nM.
